These antisense oligonucleotides have a phosphorothioate backbone; sugars and methylation of C are not fully specified.
Further: test concentration or dose not given here.

The target in one series is PTEN. The note with it: ASO.
As for TCAATATTGTTCCTGTAT, the remaining target (mRNA or protein) (fraction of control) was not below 1. The same measure, in the same setting: with ACATAGCGCCTCTGACTG the figure was 0.28. The same measure, in the same setting: with ATTGTTGCTGTGTTTCTT the figure was 0.36. Same read-out and setting: with TATTTTCATGGTGTTTTA the figure was 0.24.

GTGTCAAAACCCTGTGGA: the remaining target (mRNA or protein) (fraction of control) came out at 0.28.

In the next series the target is SMAD4. The note with it: ASO.
As for AATCCTTTCCGACCAGCC, the remaining target (mRNA or protein) (fraction of control) stood at 0.26. Same read-out and setting: under GAATTTCAATCCAGCAAG stands not below 1; under TAAAATCAGCAATACTGG, 0.79; under TTCACAAAACTCATCCTG, not below 1. Same read-out and setting: with CCTTCACTATGGCTGCCC the figure was 0.3; with AACATCACCTTCACCTTT, 0.45; with CAGGTGGTAGTGCTGTTA, not below 1.

In the case of TGACAAGTTCTGAAGAGG, the remaining target (mRNA or protein) (fraction of control) is not below 1. Still for that read-out and setting: with AACACCAATACTCAGGAG the figure was not below 1; with CATAGGCGGGTGGTGCTG, not below 1. The same measure, in the same setting: under AAAGCAGAAGAAAAGTGA stands not below 1; under GTGGACAACGATGGCTGT, not below 1; under GATGACACTGACGCAAAT, not below 1. GACAGGCATCATTACTTG yielded a remaining target (mRNA or protein) (fraction of control) not below 1. Still for that read-out and setting: with CTGTATGGTAACACATTT the figure was not below 1.

The next series addresses RIPK1. The note with it: ASO.
In the case of TCCCAGCACTTTGGAAGG, the remaining target (mRNA or protein) (fraction of control) is not below 1. The same measure, in the same setting: with CAATGATTTCCCAAATTA the figure was not below 1; with GACCCATCCCAAGTCCCT, not below 1. Take TTAAACTCTTCACGTCCT: the remaining target (mRNA or protein) (fraction of control) is 0.85. Same read-out and setting: under GCCACATTCTGTCTGGGC stands 0.72; under CCATGTAGTAGAGGGTGC, not below 1. In turn, CAGTGCTTTCCCAGATTT gave a remaining target (mRNA or protein) (fraction of control) of 0.94. Sequence TGGAAGTCATTATCAACA came in with a remaining target (mRNA or protein) (fraction of control) not below 1. Same read-out and setting: with AGTCTGTTCATCATCTTC the figure was 0.96.

With CAAGTTGAAGAGACTGCA, the remaining target (mRNA or protein) (fraction of control) was not below 1. Turning to ATCTTAATGACATTCAAG, the remaining target (mRNA or protein) (fraction of control) is not below 1.

Regarding TGTCCAGTTCTGCACTCT, the remaining target (mRNA or protein) (fraction of control) was 0.81. On the same count and under the same terms, with CCATATAATTGTAGGCTC the figure was not below 1; with ACATCTGGCCTGTTCCCA, 0.56. The same measure, in the same setting: with ATTTTATAGATTCATCTG the figure was not below 1. The same measure, in the same setting: under CTGTGGCTGAATTTGACC stands not below 1; under TTGTGTATCACGCCTTTT, not below 1. Consider CTCTATGATGACGCCCAG, for which the remaining target (mRNA or protein) (fraction of control) turned out to be 0.69. The same measure, in the same setting: with GTGCATCAGGTTGCCCTT the figure was not below 1; with TATGGCTCCTTATTTGCA, 0.78. Still for that read-out and setting: with TTTCCCCATTCTCCAGCT the figure was 0.85; with ATTCGCTTCCCAGCAGAG, 0.7. Same read-out and setting: under ATTCTCTTCTTGTGGGTG stands not below 1; under AAAAGGGTCATGGGAGAC, not below 1; under CATGGTCAATTTCATCAA, not below 1. Consider ATCTGGTAAACCTTTTCT, for which the remaining target (mRNA or protein) (fraction of control) worked out at 0.99.

For ATAAAGATGGTAGTTGGC, the remaining target (mRNA or protein) (fraction of control) was not below 1. Same read-out and setting: under CCACTTCCCTCAGCTCAT stands not below 1; under GGATCCAGTGGTCTTGTT, 0.84; under GGTTAGTTCTGGCTGACG, not below 1. As to TGCTCCACATCTTAAAGG, the remaining target (mRNA or protein) (fraction of control) came out at 0.75. Same read-out and setting: under TATCAAAGATAGCTTGGT stands not below 1; under TTGTGCTGTCTAGTAGTG, not below 1; under CCCTATCAGTGAGGACAG, not below 1. Same read-out and setting: under ACTGGGATATTATGCAGA stands 0.98; under GAAGTTTGAGACCAGCCT, not below 1; under TGAGGTTGGCTGGTGAGC, 0.83. The same measure, in the same setting: with GGCATGGTGGGTGTATTT the figure was not below 1. For GTGCCTTTTCCCTCTGTA, the remaining target (mRNA or protein) (fraction of control) turned out to be 0.84. Still for that read-out and setting: with CCCTGGGTTCTGTGGAAA the figure was 0.7.

(Values after the OligoGym collection.)
